US12194048B2, “Use of pyrrolopyridine derivatives for preventing or treating inflammatory diseases” (VORONOI CO., LTD., priority 2020, dated 2025)

What was measured:
[1] = tested on: IMQ-induced psoriasis-like skin inflammation model; experiment: Topical treatment in imiquimod (IMQ)-induced psoriasis-like skin inflammation; assay type: in vivo, BALB/c mice
Protocol: Dexamethasone (0.15%), the reference compound, was applied topically at 20 μL/mouse on the right ear once daily (QD) during the same study period.
Fifteen (15) mg imiquimod (IMQ) cream (5%) (Aldara; 3M Pharmaceuticals) was topically administered once daily (QD) on the right ear one hour after treatment from Day 1 to Day 9 for 9 consecutive days, translating to a daily dose of 0.75 mg of the active compound.
Ear swelling was measured on Day 0 and thereafter 30 min before dosing on Days 2, 4, 6 and 8. On Day 10, ear swelling was measured 24 hours after the last dosing.

[2] = tested on: DSS-induced inflammatory bowel disease mouse model; experiment: DSS-induced inflammatory bowel disease mouse model; assay type: in vivo, male C57BL/6 mice; settings: 20 mg/kg orally twice a day
Protocol: The animals used for the present experiment was male C57BL/6 mice (aged 6 to 8 weeks) weighting 20 to 24 g, purchased from Charles River Laboratories. All the mice except the normal control were made to drink 3% DSS water for 5 days to induce enteritis.
The comparative compound cyclosporine A was dissolved in 0.5% methylcellulose solvent and orally administered once a day at a prescribed concentration (20 mg/kg), and Tofacitinib was dissolved in 0.5% methylcellulose solvent and orally administered twice a day at a prescribed concentration (10 mg/kg).
Changes in body weight, occult bleeding in stool, and stool consistently were examined daily during the experiment to assess the degree of disease activity, and upon termination of the experiment (day 12), bowel tissue was collected in order to measure bowel tissue weight and length, perform histological analysis using H&E dyeing and PAS dyeing, and analyze expression of inflammatory cytokines in the bowel tissue.
To assess disease activity, changes in weight and other criteria disclosed in Table 4 below were used for scoring; scores were aggregated.

[3] = tested on: 2,4,6-trinitrobenzenesulfonic acid (TNBS) induced colitis mouse model; experiment: TNBS induced colitis mouse model; assay type: in vivo, male BALB/c mice; settings: 60 mpk orally once daily
Protocol: In the present experiment, male BALB/c mice (8 weeks old) were used. The experimental animals were subjected to dietary restriction for one day prior to treating with TNBS. Bowel inflammation was induced by administering TNBS (TNBS solution, 1 mg in 0.1 mL 50% ethanol) by submucosal injection in the colon. For the control animals in which inflammation was not induced, only 0.9% NaCl solution without TNBS was administered by submucosal injection in the colon.
The comparative compound, cyclosporine A, was orally administered once daily, and the TNF-α blocker (Enbrel®) was administered intraperitoneally once daily.
During the test, changes in body weight, occult bleeding in stool, and stool consistently were examined every day, and serum was collected on day 5 of the experiment. Bowel tissue was collected at the termination of the experiment to measure the weight of the bowel tissue, degree of polymorphonuclear leukocyte (PMN) deposition and degree of myeloperoxidase (MPO) expression.

[4] = Metabolic stability (MS) evaluation; assay type: in vitro ADME
[5] = tested on: IMQ-induced psoriasis-like skin inflammation model; experiment: Oral treatment in imiquimod (IMQ)-induced psoriasis-like skin inflammation; assay type: in vivo, BALB/c mice
Protocol: The positive control, methotrexate at 2 mg/kg and tofacitinib at 5 mg/kg were administered by oral gavage twice (BID) daily during the same study period.
Fifteen (15) mg Imiquimod (IMQ) cream (5%) (Aldara; 3M Pharmaceuticals) was topically (TOP) administered once daily (QD) on the right ear one hour after treatment from Day 1 to Day 9 for 9 consecutive days, translating to a daily dose of 0.75 mg of the active compound. Ear swelling was measured on Day 0 and thereafter 30 min before dosing on Days 2, 4, 6 and 8. On Day 10, ear swelling was measured 24 hours after the last dosing.

[6] = target: T1, STK39 (Homo sapiens, UniProt Q9UEW8); experiment: scanMAX Kinase analysis panel (DiscoverX); assay type: binding; settings: drug 1 μM in DMSO; from % control
T1 construct: purchased DiscoverX
Excerpt: (§1) [(Example compound−positive control)/(negative control−positive control)×100]

[7] = target: T2, CAMK2D (Homo sapiens, UniProt Q13557); experiment: scanMAX Kinase analysis panel (DiscoverX); assay type: binding; settings: drug 1 μM in DMSO; from % control
T2 construct: purchased DiscoverX scanMAX Kinase analysis panel
Excerpt: as §1

[8] = target: T3, INSR (Homo sapiens, UniProt P06213); experiment: scanMAX Kinase analysis panel (DiscoverX); assay type: binding; settings: drug 1 μM in DMSO; from % control
T3 construct: purchased DiscoverX
Excerpt: as §1

[9] = target: T4, ABL1-nonphosphorylated (Homo sapiens, UniProt P00519); experiment: scanMAX Kinase analysis panel (DiscoverX); assay type: binding; settings: drug 1 μM in DMSO; from % control
T4 construct: purchased DiscoverX scanMAX Kinase analysis panel
Excerpt: as §1

[10] = target: T5, JNK2 (Homo sapiens, UniProt P45984); experiment: scanMAX Kinase analysis panel (DiscoverX); assay type: binding; settings: drug 1 μM in DMSO; from % control
T5 construct: purchased DiscoverX
Excerpt: as §1

[11] = target: T6, GAK (Homo sapiens, UniProt O14976); experiment: scanMAX Kinase analysis panel (DiscoverX); assay type: binding; settings: drug 1 μM in DMSO; from % control
T6 construct: purchased DiscoverX scanMAX Kinase analysis panel
Excerpt: as §1

[12] = target: T7, PHKG2 (Homo sapiens, UniProt P15735); experiment: scanMAX Kinase analysis panel (DiscoverX); assay type: binding; settings: drug 1 μM in DMSO; from % control
T7 construct: purchased DiscoverX scanMAX Kinase analysis panel
Excerpt: as §1

[13] = target: T8, HUNK (Homo sapiens, UniProt P57058); experiment: scanMAX Kinase analysis panel (DiscoverX); assay type: binding; settings: drug 1 μM in DMSO; from % control
T8 construct: purchased DiscoverX
Excerpt: as §1

[14] = target: T9, STK33 (Homo sapiens, UniProt Q9BYT3); experiment: scanMAX Kinase analysis panel (DiscoverX); assay type: binding; settings: drug 1 μM in DMSO; from % control
T9 construct: purchased DiscoverX scanMAX Kinase analysis panel
Excerpt: as §1

[15] = target: T10, ALK(C1156Y) (Homo sapiens, UniProt Q9UM73, C1156Y); experiment: scanMAX Kinase analysis panel (DiscoverX); assay type: binding; settings: drug 1 μM in DMSO; from % control
T10 construct: purchased DiscoverX scanMAX Kinase analysis panel
Excerpt: as §1

[16] = target: T11, MYLK (Homo sapiens, UniProt Q15746); experiment: scanMAX Kinase analysis panel (DiscoverX); assay type: binding; settings: drug 1 μM in DMSO; from % control
T11 construct: purchased DiscoverX scanMAX Kinase analysis panel
Excerpt: as §1

[17] = target: T12, CHEK2 (Homo sapiens, UniProt O96017); experiment: scanMAX Kinase analysis panel (DiscoverX); assay type: binding; settings: drug 1 μM in DMSO; from % control
T12 construct: purchased DiscoverX scanMAX Kinase analysis panel
Excerpt: as §1

[18] = tested on: naive T cells in the mouse spleen; experiment: Regulatory T cell and Th17 cell differentiation; assay type: cell-based; settings: FIG. 2
Protocol: The experiment was conducted using Harmine as a control.

[19] = Metabolic stability (MS) evaluation; assay type: in vitro ADME; remark: listed apart in the source

T7 sequence (P15735 whole entry): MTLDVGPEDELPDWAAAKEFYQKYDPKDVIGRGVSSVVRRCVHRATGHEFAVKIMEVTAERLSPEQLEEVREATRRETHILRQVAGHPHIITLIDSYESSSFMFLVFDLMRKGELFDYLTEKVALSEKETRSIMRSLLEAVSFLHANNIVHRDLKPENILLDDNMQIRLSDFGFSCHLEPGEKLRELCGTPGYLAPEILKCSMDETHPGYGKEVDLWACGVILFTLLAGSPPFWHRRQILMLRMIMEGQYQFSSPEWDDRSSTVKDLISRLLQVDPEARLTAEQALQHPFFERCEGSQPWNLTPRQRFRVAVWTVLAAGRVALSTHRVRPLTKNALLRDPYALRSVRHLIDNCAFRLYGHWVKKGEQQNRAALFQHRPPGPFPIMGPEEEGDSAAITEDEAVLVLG
T11 sequence (Q15746 whole entry): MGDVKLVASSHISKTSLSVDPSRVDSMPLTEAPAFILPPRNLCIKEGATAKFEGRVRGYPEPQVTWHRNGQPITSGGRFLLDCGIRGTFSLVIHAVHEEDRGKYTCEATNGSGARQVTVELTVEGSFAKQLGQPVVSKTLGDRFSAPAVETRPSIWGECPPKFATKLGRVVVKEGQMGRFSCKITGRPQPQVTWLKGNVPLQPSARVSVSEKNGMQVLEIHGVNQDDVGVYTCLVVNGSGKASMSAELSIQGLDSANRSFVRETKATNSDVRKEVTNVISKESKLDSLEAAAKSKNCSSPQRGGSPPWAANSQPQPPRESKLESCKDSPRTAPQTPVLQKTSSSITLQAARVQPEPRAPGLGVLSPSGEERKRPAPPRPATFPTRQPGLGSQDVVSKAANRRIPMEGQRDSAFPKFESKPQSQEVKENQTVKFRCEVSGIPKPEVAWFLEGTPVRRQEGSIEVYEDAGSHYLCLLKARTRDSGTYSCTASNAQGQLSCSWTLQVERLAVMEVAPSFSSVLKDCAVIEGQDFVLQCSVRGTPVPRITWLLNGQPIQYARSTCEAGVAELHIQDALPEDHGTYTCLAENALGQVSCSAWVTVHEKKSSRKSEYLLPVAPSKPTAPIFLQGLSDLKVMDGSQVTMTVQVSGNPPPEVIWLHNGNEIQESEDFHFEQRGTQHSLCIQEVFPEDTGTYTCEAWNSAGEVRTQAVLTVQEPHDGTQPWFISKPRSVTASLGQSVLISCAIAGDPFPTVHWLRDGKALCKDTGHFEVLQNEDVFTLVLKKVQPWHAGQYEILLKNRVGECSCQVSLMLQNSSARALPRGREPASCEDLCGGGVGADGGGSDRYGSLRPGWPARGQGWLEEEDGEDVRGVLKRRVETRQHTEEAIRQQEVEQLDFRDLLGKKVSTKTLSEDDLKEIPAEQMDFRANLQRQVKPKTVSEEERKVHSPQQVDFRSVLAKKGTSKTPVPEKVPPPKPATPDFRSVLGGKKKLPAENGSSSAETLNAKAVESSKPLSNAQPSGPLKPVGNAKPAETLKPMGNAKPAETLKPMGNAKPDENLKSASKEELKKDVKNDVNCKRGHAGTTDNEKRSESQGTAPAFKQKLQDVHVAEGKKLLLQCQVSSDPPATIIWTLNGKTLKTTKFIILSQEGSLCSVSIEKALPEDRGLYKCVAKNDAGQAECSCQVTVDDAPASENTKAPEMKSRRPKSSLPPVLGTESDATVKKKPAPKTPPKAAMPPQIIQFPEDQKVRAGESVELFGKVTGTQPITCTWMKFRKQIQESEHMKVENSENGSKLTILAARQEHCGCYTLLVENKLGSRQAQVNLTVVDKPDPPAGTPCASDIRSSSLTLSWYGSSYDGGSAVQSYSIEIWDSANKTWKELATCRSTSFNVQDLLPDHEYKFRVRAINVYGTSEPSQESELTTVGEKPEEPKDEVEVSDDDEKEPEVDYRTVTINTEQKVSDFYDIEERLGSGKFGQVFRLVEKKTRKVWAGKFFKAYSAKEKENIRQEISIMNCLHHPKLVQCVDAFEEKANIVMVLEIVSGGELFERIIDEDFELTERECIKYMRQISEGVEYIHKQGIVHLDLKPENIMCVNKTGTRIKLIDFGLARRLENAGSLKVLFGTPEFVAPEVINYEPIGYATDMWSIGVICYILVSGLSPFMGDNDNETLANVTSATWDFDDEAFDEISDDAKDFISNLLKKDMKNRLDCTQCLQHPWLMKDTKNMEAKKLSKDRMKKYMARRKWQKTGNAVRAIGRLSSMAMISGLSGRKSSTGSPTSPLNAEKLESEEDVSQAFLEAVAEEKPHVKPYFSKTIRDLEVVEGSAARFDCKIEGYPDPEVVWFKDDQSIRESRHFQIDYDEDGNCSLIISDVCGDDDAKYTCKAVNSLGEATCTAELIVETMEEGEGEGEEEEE
T9 sequence (Q9BYT3 whole entry): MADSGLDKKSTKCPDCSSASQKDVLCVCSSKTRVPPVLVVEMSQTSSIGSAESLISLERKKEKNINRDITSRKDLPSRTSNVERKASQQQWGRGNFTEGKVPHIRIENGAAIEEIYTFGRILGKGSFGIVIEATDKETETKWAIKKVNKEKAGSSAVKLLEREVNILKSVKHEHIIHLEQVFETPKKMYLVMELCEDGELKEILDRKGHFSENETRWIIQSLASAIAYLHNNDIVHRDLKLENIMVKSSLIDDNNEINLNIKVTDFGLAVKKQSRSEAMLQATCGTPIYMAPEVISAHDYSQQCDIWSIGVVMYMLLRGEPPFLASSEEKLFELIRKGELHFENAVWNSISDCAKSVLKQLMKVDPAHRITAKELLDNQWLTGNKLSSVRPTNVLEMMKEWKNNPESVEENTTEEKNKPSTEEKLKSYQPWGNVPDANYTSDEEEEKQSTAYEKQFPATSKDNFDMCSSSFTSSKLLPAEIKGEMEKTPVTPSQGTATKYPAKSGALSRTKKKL
T8 sequence (P57058 whole entry): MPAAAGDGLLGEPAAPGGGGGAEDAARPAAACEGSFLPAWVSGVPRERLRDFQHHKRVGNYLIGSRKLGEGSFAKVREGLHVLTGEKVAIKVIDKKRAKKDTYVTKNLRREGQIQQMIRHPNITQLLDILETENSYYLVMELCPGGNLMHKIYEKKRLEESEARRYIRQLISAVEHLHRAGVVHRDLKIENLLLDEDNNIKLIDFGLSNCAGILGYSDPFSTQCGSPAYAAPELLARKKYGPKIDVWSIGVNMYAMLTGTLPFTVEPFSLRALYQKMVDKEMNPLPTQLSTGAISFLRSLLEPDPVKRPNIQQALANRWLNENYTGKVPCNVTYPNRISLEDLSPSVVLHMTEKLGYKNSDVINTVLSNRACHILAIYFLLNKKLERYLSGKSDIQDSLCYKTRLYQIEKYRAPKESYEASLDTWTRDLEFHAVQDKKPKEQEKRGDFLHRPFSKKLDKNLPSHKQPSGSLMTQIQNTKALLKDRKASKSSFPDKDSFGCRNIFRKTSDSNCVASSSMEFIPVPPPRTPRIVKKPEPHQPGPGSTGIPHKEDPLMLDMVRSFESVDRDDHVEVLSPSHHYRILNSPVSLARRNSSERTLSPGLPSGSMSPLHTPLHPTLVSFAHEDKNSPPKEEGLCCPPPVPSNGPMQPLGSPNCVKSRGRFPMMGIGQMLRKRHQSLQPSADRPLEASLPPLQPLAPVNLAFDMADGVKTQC
T3 sequence (P06213 28-1382): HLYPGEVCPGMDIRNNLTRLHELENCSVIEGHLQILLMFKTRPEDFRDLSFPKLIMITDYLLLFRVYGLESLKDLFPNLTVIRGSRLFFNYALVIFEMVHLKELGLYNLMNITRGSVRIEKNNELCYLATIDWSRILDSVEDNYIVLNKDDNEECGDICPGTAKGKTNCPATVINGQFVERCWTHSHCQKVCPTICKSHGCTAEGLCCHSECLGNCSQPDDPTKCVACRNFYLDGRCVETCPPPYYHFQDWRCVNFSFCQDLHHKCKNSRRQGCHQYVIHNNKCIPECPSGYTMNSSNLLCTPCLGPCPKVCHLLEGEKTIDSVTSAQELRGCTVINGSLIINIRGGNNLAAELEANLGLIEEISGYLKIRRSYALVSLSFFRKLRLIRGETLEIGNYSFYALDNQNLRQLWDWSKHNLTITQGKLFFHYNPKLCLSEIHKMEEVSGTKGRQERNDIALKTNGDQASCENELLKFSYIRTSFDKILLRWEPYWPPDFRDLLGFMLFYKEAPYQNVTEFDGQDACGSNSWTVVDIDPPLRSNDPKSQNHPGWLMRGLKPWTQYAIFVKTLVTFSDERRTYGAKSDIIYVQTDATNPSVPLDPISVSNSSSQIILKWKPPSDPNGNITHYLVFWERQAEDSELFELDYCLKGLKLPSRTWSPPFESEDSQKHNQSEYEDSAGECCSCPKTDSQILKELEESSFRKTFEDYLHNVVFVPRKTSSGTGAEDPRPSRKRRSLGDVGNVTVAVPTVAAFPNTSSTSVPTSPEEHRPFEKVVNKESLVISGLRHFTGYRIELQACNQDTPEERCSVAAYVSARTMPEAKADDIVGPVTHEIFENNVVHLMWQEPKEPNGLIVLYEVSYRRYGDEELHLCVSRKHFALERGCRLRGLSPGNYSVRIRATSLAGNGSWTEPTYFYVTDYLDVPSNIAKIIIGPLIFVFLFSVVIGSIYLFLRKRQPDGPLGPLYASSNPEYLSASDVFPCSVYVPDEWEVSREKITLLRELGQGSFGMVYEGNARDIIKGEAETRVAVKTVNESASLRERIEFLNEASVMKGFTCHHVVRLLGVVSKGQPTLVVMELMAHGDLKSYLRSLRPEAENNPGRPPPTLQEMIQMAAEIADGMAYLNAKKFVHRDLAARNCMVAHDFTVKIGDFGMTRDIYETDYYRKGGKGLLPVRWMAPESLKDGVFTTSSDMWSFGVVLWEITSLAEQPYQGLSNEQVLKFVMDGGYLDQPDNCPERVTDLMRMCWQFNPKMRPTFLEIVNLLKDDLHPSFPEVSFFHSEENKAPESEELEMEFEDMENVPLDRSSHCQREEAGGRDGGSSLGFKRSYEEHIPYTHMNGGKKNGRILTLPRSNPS

MS (1 μM) (% remaining during 30 min) Rat [4]: 20%
inhibition at 1 µM [6]: 40 to 59%
inhibition at 1 µM [7]: 40 to 59%
inhibition at 1 µM [8]: 40 to 59%
inhibition at 1 µM [9]: 40 to 59%
inhibition at 1 µM [10]: 40 to 59%
inhibition at 1 µM [11]: ≥ 59%
inhibition at 1 µM [12]: ≥ 59%
inhibition at 1 µM [13]: 40 to 59%
inhibition at 1 µM [14]: ≥ 59%
inhibition at 1 µM [15]: ≥ 59%
inhibition at 1 µM [16]: ≥ 59%
inhibition at 1 µM [17]: 40 to 59%
MS (1 μM) (% remaining during 30 min) Human [19]: 39%
SMILES: CCNc1cc(Nc2ccc(C(=O)N3CCC(N4CCOCC4)CC3)cc2OC)nc2[nH]cc(C(F)(F)F)c12 [Compound 1, (4-((4-(ethylamino)-3-(trifluoromethyl)-1H-pyrrolo[2,3-b]pyridine-6-yl)amino)-3-methoxyphenyl)(4-morpholinopiperidine-1-yl)methanone]
IMQ-induced ear swelling ([1]; 0.3, 1% and 3% topical 20 μL/mouse QD x 9 days, Day 6 to Day 10, dose-dependent, vs no treatment and vehicle): moderate to significant (p<0.05) inhibition
severity of skin lesions (histopathological examination of the ear skin) ([1]; 3% topical, vs no treatment group and vehicle group): attenuated significantly
protective effects in IMQ-induced psoriasis-like inflammation (ear swelling, ear weight, histopathological result) ([1]; 3%, high dose, 20 μL/mouse QD×9 days topically): significant (p<0.05) protective effects
disease activity ([2]; FIG. 7): reduced to the level of the control administered cyclosporine A
expression of IL-6 in bowel tissue ([2]; FIG. 8): decreased
expression of IL-17A in bowel tissue ([2]; FIG. 8): decreased
expression of TNR-α in bowel tissue ([2]; FIG. 8): decreased
loss of goblet cells ([2]; histological analysis, FIG. 8): reduced
body weight reduction ([2]; vs control not treated, FIG. 7): less weight reduction
weight of bowel tissue ([3]; FIG. 6): weight reduction
thickness of lamina propria ([3]; H&E, FIG. 5): decreased in thickness
MPO levels ([3]; bowel tissue, vs control not treated, FIG. 6): lower
protective effects on IMQ-induced psoriasis-like inflammation (ear swelling) ([5]; 45 and 60 mg/kg PO BID×9 days): significantly (p<0.05) protective effects
IMQ-induced ear swelling ([5]; 45 and 60 mg/kg oral gavage BID 9 days, Day 8 to Day 10, vs vehicle group): statistically (p<0.05) significant inhibition
differentiation of Th17 cells ([18]; Th17 differentiation conditions): decreased
differentiation of regulatory T cells (Treg) ([18]; regulatory T cell differentiation conditions): increased
